Reference: patent US10294202B2, “Pyrrolidinones as herbicides” (FMC Corporation, priority 2013, dated 2019)

Assays:
foxtail, giant = assay: Test C pre-/postemergence herbicide test; assay type: in vivo, Setaria faberii
Method in brief: (§1)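 Compound solutions contained surfactant in a non-phytotoxic solvent. These were sprayed onto pots of loam/sand sown with seeds, and onto young plants (2 to 18 cm, 1- to 4-leaf) in sphagnum peat–vermiculite mix. Visual injury scores (0 none, 100 complete control) were recorded after 13 to 15 days.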

corn [1] = assay: Test A pre-/postemergence herbicide test; assay type: in vivo, Zea mays; conditions: Postemergence
Method in brief: (§2)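 Formulated compound (non-phytotoxic solvent, surfactant) sprayed pre- onto soil of seeded loam/sand pots or post- onto seedlings at 1–2 leaves; ~10 d greenhouse; 0–100 visual control rating versus untreated.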

sedge, umbrella = assay: Test B flooded paddy test; assay type: in vivo, Cyperus difformis; conditions: 500 g ai/ha, Flood; scale of 0 to 100 where 0 is no effect and 100 is complete control
Method in brief: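 2-leaf plants; flood 3 cm over soil; compound into paddy water; depth held. Greenhouse 13–15 d. Visual rating vs controls, 0 (no effect) to 100 (complete control); dash = not tested.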

corn [2] = assay: Test C pre-/postemergence herbicide test; assay type: in vivo, Zea mays
Method in brief: as §1

pigweed = assay: Test A pre-/postemergence herbicide test; assay type: in vivo, Amaranthus retroflexus
Method in brief: as §2

barnyardgrass = assay: Test A pre-/postemergence herbicide test; assay type: in vivo, Echinochloa crus-galli
Method in brief: as §2

oat, wild = assay: Test C pre-/postemergence herbicide test; assay type: in vivo, Avena fatua; conditions: Postemergence
Method in brief: as §1

galium = assay: Test C pre-/postemergence herbicide test; assay type: in vivo, Galium aparine
Method in brief: as §1

soybean = assay: Test C pre-/postemergence herbicide test; assay type: in vivo, Glycine max
Method in brief: as §1

ragweed = assay: Test C pre-/postemergence herbicide test; assay type: in vivo, Ambrosia elatior
Method in brief: as §1

ryegrass, Italian = assay: Test C pre-/postemergence herbicide test; assay type: in vivo, Lolium multiflorum
Method in brief: as §1

[3] = Postemergence, 31 g ai/ha, scale 0 to 100 (0 no effect, 100 complete control)
[4] = Postemergence, 62 g ai/ha, scale 0 (no effect) to 100 (complete control)
[5] = Postemergence, 125 g ai/ha, scale 0 to 100 (0 no effect, 100 complete control)
[6] = Postemergence, 250 g ai/ha, scale 0 to 100 (0 no effect, 100 complete control)
[7] = Preemergence, 31 g ai/ha, scale 0 to 100, 0 is no effect and 100 is complete control
[8] = Preemergence, 62 g ai/ha, scale 0 to 100 (0 no effect, 100 complete control)
[9] = Preemergence, 125 g ai/ha, scale 0 to 100 (0 no effect, 100 complete control)
[10] = Postemergence, 500 g ai/ha, 0 to 100 scale (0 no effect, 100 complete control)
[11] = Preemergence, 125 g ai/ha, 0 to 100 scale where 0 is no effect and 100 is complete control
[12] = preemergence, 500 g ai/ha, 0 to 100 scale, 0 is no effect and 100 is complete control

O=C1NCC(c2cc(F)cc(F)c2)C1C(=O)Nc1cccc(F)c1F (racemic) [Compound 279]
20: Plant response rating, Ragweed (ragweed; [4])
30: Plant response rating, Foxtail, Giant (foxtail, giant; [4]) | Plant response rating, Galium (galium; [5]) | Plant response rating, Galium (galium; [6]) | Plant response rating, Ryegrass, Italian (ryegrass, Italian; [9])
60: Plant response rating (scale of 0 to 100), Ryegrass, Italian (ryegrass, Italian; Preemergence, 250 g ai/ha)
35: Plant response rating, Ragweed (ragweed; [5]) | Plant response rating, Ragweed (ragweed; [6])
15: Plant response rating, Galium (galium; [4]) | Plant response rating, Ragweed (ragweed; [3])
90: Plant response rating, Foxtail, Giant (foxtail, giant; [5]) | Plant response rating, Foxtail, Giant (foxtail, giant; [6]) | Foxtail, Giant plant response rating (foxtail, giant; [7]) | Plant response rating, Barnyardgrass (barnyardgrass; [10]) | Plant response rating, Barnyardgrass (barnyardgrass; [12])
85: Plant response rating, Galium (galium; [9]) | Plant response rating (scale of 0 to 100), Galium (galium; Preemergence, 250 g ai/ha)
98: Plant response rating, Foxtail, Giant (foxtail, giant; [9]) | Plant response rating (scale of 0 to 100), Foxtail, Giant (foxtail, giant; Preemergence, 250 g ai/ha)
0: Plant response rating, Foxtail, Giant (foxtail, giant; [3]) | Plant response rating, Sedge, Umbrella (sedge, umbrella) | Plant response rating, Corn (corn [2]; [3]) | Plant response rating, Corn (corn [2]; [4]) | Plant response rating, Corn (corn [2]; [5]) | Plant response rating, Corn (corn [2]; [6]) | Corn plant response rating (corn [2]; [7]) | Corn plant response rating (corn [2]; [8]) | Plant response rating, Pigweed (pigweed; Postemergence, 125 g ai/ha, visual rating on 0 to 100 scale (0 no effect, 100 complete control), approx. 10 days) | Plant response rating, Pigweed (pigweed; [10]) | Plant response rating, Pigweed (pigweed; [11]) | Plant response rating, Oat, Wild (oat, wild; 31 g ai/ha, scale 0 to 100 (0 no effect, 100 complete control)) | Plant response rating, Oat, Wild (oat, wild; 62 g ai/ha, scale 0 (no effect) to 100 (complete control)) | Plant response rating, Oat, Wild (oat, wild; 125 g ai/ha, scale 0 to 100 (0 no effect, 100 complete control)) | Plant response rating, Oat, Wild (oat, wild; 250 g ai/ha, scale 0 to 100 (0 no effect, 100 complete control)) | Plant response rating, Galium (galium; [3]) | Galium plant response rating (galium; [7]) | Galium plant response rating (galium; [8]) | Plant response rating, Soybean (soybean; [5]) | Soybean plant response rating (soybean; [7]) | Soybean plant response rating (soybean; [8]) | Plant response rating, Soybean (soybean; [9]) | Ragweed plant response rating (ragweed; [7]) | Ragweed plant response rating (ragweed; [8]) | Plant response rating, Ryegrass, Italian (ryegrass, Italian; [3]) | Plant response rating, Ryegrass, Italian (ryegrass, Italian; [4]) | Plant response rating, Ryegrass, Italian (ryegrass, Italian; [5]) | Plant response rating, Ryegrass, Italian (ryegrass, Italian; [6]) | Ryegrass, Italian plant response rating (ryegrass, Italian; [7])
65: Plant response rating (scale of 0 to 100), Corn (corn [2]; Preemergence, 250 g ai/ha) | Plant response rating (scale of 0 to 100), Ragweed (ragweed; Preemergence, 250 g ai/ha)
10: Plant response rating, Soybean (soybean; [4]) | Plant response rating, Soybean (soybean; [6]) | Plant response rating (scale of 0 to 100), Soybean (soybean; Preemergence, 250 g ai/ha) | Plant response rating, Ragweed (ragweed; [9]) | Ryegrass, Italian plant response rating (ryegrass, Italian; [8])
70: Plant response rating, Corn (corn [1]; 500 g ai/ha, 0 to 100 scale (0 no effect, 100 complete control))
5: Plant response rating, Corn (corn [2]; [9])
80: Plant response rating, Barnyardgrass (barnyardgrass; Postemergence, 125 g ai/ha, 0 to 100 scale, 0 is no effect, 100 is complete control) | Plant response rating, Barnyardgrass (barnyardgrass; [11])
95: Foxtail, Giant plant response rating (foxtail, giant; [8])
40: Plant response rating, Corn (corn [1]; 125 g ai/ha, 0 to 100 scale, 0 is no effect, 100 is complete control) | Plant response rating, Pigweed (pigweed; [12]) | Plant response rating, Soybean (soybean; [3])
